The results in this text go back to US9682991B2, “Tricyclic compounds for use as kinase inhibitors” (FUNDACIÓN CENTRO NACIONAL DE INVESTIGACIONES ONCOLOGICAS …, priority 2009, dated 2017).

What is called IC50 is the concentration needed to halve the response being measured. Usually EC50 stands for the midpoint of the concentration-response curve.

The target of one assay is PIM-1 (Homo sapiens (Human), UniProt P11309). Description: PIM-1 biochemical assay (ADP Hunter).
The target in a further assay is PIM-2 (Homo sapiens (Human), UniProt Q9P1W9). Description: PIM-2 biochemical assay (ADP Hunter). The following applies: semi-quantitative; read-out: PIM2 IC50. The source says:
The biochemical assay to measure PIM-2 activity relies on the ADP Hunter assay kit (DiscoveRx Corp., Cat. #90-0077), that determines the amount of ADP as direct product of the kinase enzyme activity.

For another assay, the target named is PIM-3 (Homo sapiens (Human), UniProt Q86V86). Description: PIM-3 biochemical assay (ADP Hunter). The following applies: semi-quantitative; read-out: PIM3 IC50.
Assay [1] has as its system Bad S112 phosphorylation in H1299 cells overexpressing Pim1 (H1299Pim1). In words: Bad S112 phosphorylation inhibition assay (In Cell ELISA). It is filed as cell-based. The following applies: Homo sapiens, NCI-H1299, semi-quantitative, read-out: EC50 BadP ELISA H1299 Pim1. The method, then: Efficacy of compounds of the invention on the inhibition of Bad phosphorylation was measured by an In Cell ELISA. EC50 values were established for the tested compounds.
Cells: H1299 cells overexpressing Pim1 (H1299Pim1)
Cells were seeded in 15000 cells per 200 μl per well into 96-well plates and incubated for 16 h at 37° C., 5% CO2. On day two, nine serial 1:2 compound dilutions were made in DMSO in a 96-well plate. The compounds were added to duplicate wells in 96-well cell plates using a FX BECKMAN robot (Beckman Coulter) and incubated at 37° C. with CO2 atmosphere. After 4 hours, relative levels of Bad S112 phosphorylation were measured in Cell ELISA using SuperSignal ELISA Femto substrate (Pierce) and read on VICTOR (Perkin Elmer). EC50 values were calculated using ActivityBase from IDBS.
In general terms: ELISA stands for enzyme-linked immunosorbent assay.

Setting [2] is: read-out: PIM1 IC50, semi-quantitative.

Like-named read-outs stand apart in the source and are kept apart here. Where only a bound is given, the exact number is not on record here.

Chain of PIM-2 (Q9P1W9 whole entry): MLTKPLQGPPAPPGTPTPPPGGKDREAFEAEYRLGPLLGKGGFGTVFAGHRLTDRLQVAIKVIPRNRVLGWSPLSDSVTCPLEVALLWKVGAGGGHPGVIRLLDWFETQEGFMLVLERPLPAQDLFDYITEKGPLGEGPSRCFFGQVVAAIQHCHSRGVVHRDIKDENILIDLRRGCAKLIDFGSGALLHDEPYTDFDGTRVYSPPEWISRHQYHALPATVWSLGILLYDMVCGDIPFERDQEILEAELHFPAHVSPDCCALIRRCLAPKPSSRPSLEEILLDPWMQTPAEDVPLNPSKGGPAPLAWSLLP
Chain of PIM-1 (P11309 whole entry): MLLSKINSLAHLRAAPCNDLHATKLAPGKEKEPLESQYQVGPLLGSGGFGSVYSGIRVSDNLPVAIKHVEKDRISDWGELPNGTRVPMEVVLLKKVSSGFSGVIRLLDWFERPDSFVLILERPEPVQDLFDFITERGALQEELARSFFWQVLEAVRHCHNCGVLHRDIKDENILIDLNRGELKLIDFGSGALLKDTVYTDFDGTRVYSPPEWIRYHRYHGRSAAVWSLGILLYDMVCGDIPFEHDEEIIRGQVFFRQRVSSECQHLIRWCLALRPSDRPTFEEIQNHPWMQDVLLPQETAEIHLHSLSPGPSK

Regarding `CN1CCOc2c1c(NCCCO)nn1c(-c3cccc(OC(F)(F)F)c3)nnc21` [Example 21, 3-[6-Methyl-3-(3-trifluoromethoxy-phenyl)-7,8-dihydro-6H-9-oxa-1,2,3a,4,6-pentaaza-cyclopenta[a]naphthalen-5-ylamino]-propan-1-ol], the IC50 on PIM-1 (setting [2]) is < 0.1 µM; at PIM-2 it was 0.1 to 1 µM; on PIM-3, 0.1 to 1 µM.

Take `CN1CCOc2c1c(NC1CCOCC1)nn1c(-c3cccc(OC(F)(F)F)c3)nnc21` [Example 23, [6-Methyl-3-(3-trifluoromethoxy-phenyl)-7,8-dihydro-6H-9-oxa-1,2,3a,4,6-pentaaza-cyclopenta[a]naphthalen-5-yl]-(tetrahydro-pyran-4-yl)-amine]: the IC50 at PIM-1 (setting [2]) was < 0.1 µM; on PIM-2 it was < 0.1 µM; at PIM-3, 0.1 to 1 µM.

As for `CN1CCOc2c1c(NCCc1cccnc1)nn1c(-c3cccc(OC(F)(F)F)c3)nnc21` [Example 26, [6-Methyl-3-(3-trifluoromethoxy-phenyl)-7,8-dihydro-6H-9-oxa-1,2,3a,4,6-pentaaza-cyclopenta[a]naphthalen-5-yl]-(2-pyridin-3-yl-ethyl)-amine], the IC50 at PIM-2 and at PIM-3 was 0.1 to 1 µM each time.

On to `CN1CCC(CNc2nn3c(-c4cccc(C(F)(F)F)c4)nnc3c3c2N(C)CCO3)CC1` [Example 32, (1-Methyl-piperidin-4-ylmethyl)-[6-methyl-3-(3-trifluoromethyl-phenyl)-7,8-dihydro-6H-9-oxa-1,2,3a,4,6-pentaaza-cyclopenta[a]naphthalen-5-yl]-amine], for which the IC50 is < 0.1 µM at PIM-1 (setting [2]), 0.1 to 1 µM at PIM-2 and < 0.1 µM on PIM-3.

`CN1CCC(CNc2nn3c(-c4cccc(OC(F)(F)F)c4)nnc3c3c2CCCC3)CC1` [Example 37, (1-Methyl-piperidin-4-ylmethyl)-[3-(3-trifluoromethoxy-phenyl)-7,8,9,10-tetrahydro-[1,2,4]triazolo[3,4-a]phthalazin-6-yl]-amine]: the EC50 in assay [1] lay within 1 to 10 µM.

As to `CN1CCOc2c1c(NCC1CCC(O)CC1)nn1c(-c3cccc(OC(F)(F)F)c3)nnc21` (centres unmarked) [Example 43, 4-{[6-Methyl-3-(3-trifluoromethoxy-phenyl)-7,8-dihydro-6H-9-oxa-1,2,3a,4,6-pentaaza-cyclopenta[a]naphthalen-5-ylamino]-methyl}-cyclohexanol], the IC50 on PIM-1 (setting [2]) and at PIM-3 was < 0.1 µM throughout.

With `CN1CCOc2c1c(NCC13CCN(CC1)C3)nn1c(-c3cccc(OC(F)(F)F)c3)nnc21` [Example 54, (1-Aza-bicyclo[2.2.1]hept-4-ylmethyl)-[6-methyl-3-(3-trifluoromethoxy-phenyl)-7,8-dihydro-6H-9-oxa-1,2,3a,4,6-pentaaza-cyclopenta[a]naphthalen-5-yl]-amine], the EC50 in assay [1] lay in the range of 0.25 to 1 µM.

As to `CN1CCOc2c1c(N1CCC(CN)CC1)nn1c(-c3cccc(OC(F)(F)F)c3)nnc21` [Example 55, C-{1-[6-Methyl-3-(3-trifluoromethoxy-phenyl)-7,8-dihydro-6H-9-oxa-1,2,3a,4,6-pentaaza-cyclopenta[a]naphthalen-5-yl]-piperidin-4-yl}-methylamine], the IC50 on PIM-1 (setting [2]) and at PIM-3 was < 0.1 µM in each case.

Turning to `CN1CCOc2c1c(NCC1CC3(CCNCC3)C1)nn1c(-c3cccc(OC(F)(F)F)c3)nnc21` [Example 59], the EC50 in assay [1] lay within 0.25 to 1 µM.

As to `CN1CCC(CNc2nn3c(-c4cccc(OC(F)(F)F)c4)nnc3c3c2OCC(C)(C)N3C)CC1` [Example 72, (1-Methyl-piperidin-4-ylmethyl)-[8,8,9-trimethyl-3-(3-trifluoromethoxy-phenyl)-8,9-dihydro-7H-6-oxa-1,2,3a,4,9-pentaaza-cyclopenta[a]naphthalen-5-yl]-amine], the results for the IC50 at PIM-1, on PIM-2 and at PIM-3 were 0.1 to 1 µM, > 1 µM and 0.1 to 1 µM, respectively.

Take `COc1ccc(-c2nnc3c4c(c(NCc5ccc(F)cc5)nn23)OCCN4C)cc1` [Example 80, (4-Fluoro-benzyl)-[3-(4-methoxy-phenyl)-9-methyl-8,9-dihydro-7H-6-oxa-1,2,3a,4,9-pentaaza-cyclopenta[a]naphthalen-5-yl]-amine]: the IC50 at PIM-1 (setting [2]) and on PIM-2 was > 1 µM in each case.

Take `CN1CCOc2c(N3CC4(CCNCC4)C3)nn3c(-c4cccc(OC(F)(F)F)c4)nnc3c21` [Example 83, 5-(2,7-Diaza-spiro[3.5]non-2-yl)-9-methyl-3-(3-trifluoromethoxy-phenyl)-8,9-dihydro-7H-6-oxa-1,2,3a,4,9-pentaaza-cyclopenta[a]naphthalene]: the half-inhibitory concentration (IC50) against PIM-1 is 0.1 to 1 µM; on PIM-2, > 1 µM.

In the case of `CN1CCC(CNc2nn3c(-c4ccc(O)cc4)nnc3c3c2N(C)CCO3)CC1` [Example 84, 4-{6-Methyl-5-[(1-methyl-piperidin-4-ylmethyl)-amino]-7,8-dihydro-6H-9-oxa-1,2,3a,4,6-pentaaza-cyclopenta[a]naphthalen-3-yl}-phenol], the 50% inhibitory concentration (IC50) is 0.1 to 1 µM against PIM-1 and > 1 µM at PIM-2.

`CC(C)NCC1CCN(c2nn3c(-c4cccc(OC(F)(F)F)c4)nnc3c3c2N(C)CCO3)CC1` [Example 85, Isopropyl-{1-[6-methyl-3-(3-trifluoromethoxy-phenyl)-7,8-dihydro-6H-9-oxa-1,2,3a,4,6-pentaaza-cyclopenta[a]naphthalen-5-yl]-piperidin-4-ylmethyl}-amine]: the IC50 was < 0.1 µM at PIM-1 (setting [2]), 0.1 to 1 µM at PIM-2 and 0.1 to 1 µM on PIM-3.

As to `CCN1CCC(CNc2nn3c(-c4cccc(OC(F)(F)F)c4)nnc3c3c2N(C)CCO3)CC1` [Example 91, (1-Ethyl-piperidin-4-ylmethyl)-[6-methyl-3-(3-trifluoromethoxy-phenyl)-7,8-dihydro-6H-9-oxa-1,2,3a,4,6-pentaaza-cyclopenta[a]naphthalen-5-yl]-amine], the EC50 in assay [1] was in the range of 0.25 to 1 µM.

In the case of `COc1ccc(-c2nnc3c4c(c(N5CCC(CNC(C)=O)CC5)nn23)N(C)CCO4)cc1` [Example 92, N-{1-[3-(4-Methoxy-phenyl)-6-methyl-7,8-dihydro-6H-9-oxa-1,2,3a,4,6-pentaaza-cyclopenta[a]naphthalen-5-yl]-piperidin-4-ylmeth I}-acetamide], the IC50 on PIM-1 (setting [2]) and on PIM-2 was > 1 µM each time.

Turning to `CN1CCN(C)c2c1c(NCc1ccc(F)cc1)nn1c(-c3ccc(O)cc3)nnc21` [Example 94, 4-[5-(4-Fluoro-benzylamino)-6,9-dimethyl-6,7,8,9-tetrahydro-1,2,3a,4,6,9-hexaaza-cyclopenta[a]naphthalen-3-yl]-phenol], the IC50 was 0.1 to 1 µM against PIM-1, < 0.1 µM at PIM-1 (setting [2]) and > 1 µM on PIM-2.

Consider `CC(=O)N1CCN(CCNc2nn3c(-c4cccc(OC(F)(F)F)c4)nnc3c3c2OCCN3C)CC1` [Example 95, 1-(4-{2-[9-Methyl-3-(3-trifluoromethoxy-phenyl)-8,9-dihydro-7H-6-oxa-1,2,3a,4,9-pentaaza-cyclopenta[a]naphthalen-5-ylamino]-ethyl}-piperazin-1-yl)-ethanone], for which the concentration for half-maximal inhibition (IC50) on PIM-1 (setting [2]) and at PIM-2 was > 1 µM throughout.

Take `CN1CCOc2c(NCCN3CCN(S(C)(=O)=O)CC3)nn3c(-c4cccc(OC(F)(F)F)c4)nnc3c21` [Example 96, [2-(4-Methanesulfonyl-piperazin-1-yl)-ethyl]-[9-methyl-3-(3-trifluoromethoxy-phenyl)-8,9-dihydro-7H-6-oxa-1,2,3a,4,9-pentaaza-cyclopenta[a]naphthalen-5-yl]-amine]: the IC50 was 0.1 to 1 µM against PIM-1 and > 1 µM at PIM-2.

On to `CN1CCOc2c1c(N(C)C1CCOCC1)nn1c(-c3cccc(OC(F)(F)F)c3)nnc21` [Example 97, Methyl-[6-methyl-3-(3-trifluoromethoxy-phenyl)-7,8-dihydro-6H-9-oxa-1,2,3a,4,6-pentaaza-cyclopenta[a]naphthalen-5-yl]-(tetrahydro-pyran-4-yl)-amine], for which the figures for the IC50 on PIM-1 (setting [2]), at PIM-2 and at PIM-3 were < 0.1 µM, 0.1 to 1 µM and < 0.1 µM, respectively.

With `CN(CCN1CCOCC1)c1nn2c(-c3cccc(OC(F)(F)F)c3)nnc2c2c1N(C)CCO2` [Example 98, Methyl-[6-methyl-3-(3-trifluoromethoxy-phenyl)-7,8-dihydro-6H-9-oxa-1,2,3a,4,6-pentaaza-cyclopenta[a]naphthalen-5-yl]-(2-morpholin-4-yl-ethyl)-amine], the values for the half-maximal inhibitory concentration (IC50) at PIM-1 (setting [2]), on PIM-2 and on PIM-3 were < 0.1 µM, 0.1 to 1 µM and 0.1 to 1 µM, respectively.

As for `FC(F)(F)Oc1cccc(-c2nnc3c4c(c(NCC5CC5)nn23)OCCO4)c1` [Example 102, Cyclopropylmethyl-[3-(3-trifluoromethoxy-phenyl)-7,8-dihydro-6,9-dioxa-1,2,3a,4-tetraaza-cyclopenta[a]naphthalen-5-yl]-amine], the IC50 on PIM-1 (setting [2]) and on PIM-2 was < 0.1 µM each time.

For the molecule `CN1CCOc2c1c(NCC1CC[N+](C)([O-])CC1)nn1c(-c3cccc(OC(F)(F)F)c3)nnc21` (centres unmarked) [Example 103, (1-Methyl-1-oxy-pipe-din-4-ylmethyl)-[6-methyl-3-(3-trifluoromethoxy-phenyl)-7,8-dihydro-6H-9-oxa-1,2,3a,4,6-pentaaza-cyclopenta[a]naphthalen-5-yl]-amine], the IC50 on PIM-1 (setting [2]) was < 0.1 µM; on PIM-2 it was > 1 µM.
